Results as given in US6710078B2, “5-Substituted-3(2H)-furanones useful for inhibition of farnesyl-protein transferase” (Wyeth Holdings Corporation, priority 2001, dated 2004).

Key:
[1] = target: T1, FPTase (Homo sapiens, UniProt P49354+P49356); test: in vitro FTase Inhibition Assay, H-Ras as substrate for farnesylation; type: biochemical; settings: H-Ras used as substrate for farnesylation
Protocol: (§1) Enzyme test procedure: FPTase inhibition in vitro assay was performed according to James, G. L., Brown, M. S., and Goldstein, J. L., Methods in Enzymology, 1995, 255, 38-46; and Garcia, M. A., et al., J. Biol. Chem., 1993, 268,18415-18420.
(§2) Materials—Purified FPTase (Moomaw, J. F. and Casey, P. J., J. Biol. Chem., 1992, 267,17438-17443), purified His6-Ras, inhibitor compounds at 10 mg/ml or 10 mM in 100% DMSO, ^3H-FPP (50,000 dpm/pmol) Amersham, TCA/SDS (6%/2%), TCA (6%), Glass fiber filters ([…]), vacuum manifold or 96 well filtration plates.
(§3) Methods—1. Dilute FPTase inhibitors from stock solutions to 2.5× in 2.5% DMSO, 10 mM DTT, 0.5% octyl-B-glucoside. 2. Solution #1 is added to FPTase reaction in a volume of […]. 3. Standard reaction mix, […], contains 50 mM Tris (7.5),[…], 3 mM MgCl2, 20 mM KCl, 5 mM DTT, 0.2% octyl-B-glucoside, 1% DMSO, […], 10 ng FPTase, and various concentrations of FPTase inhibitors. 4. Incubate for 30-90 min at 25° C. 5. Stop reactions with TCA/SDS (6%/2%), hold at 4° C. for 45-60 min. 6. Filter by manifold or 96 well plate, wash filter 3-5× with TCA (6%). 7. Add scintillant to filters, measure ^3H-FPP incorporation into Ras protein.
(§4) Analysis of Results—Percent inhibition by test compounds is determined by the following:
(§5) (cpm from precipitated Ras with test compounds)−(background cpm)×100=% inhibition.
(§6) (cpm from precipitated Ras without test compounds)−(background cpm)

[2] = target: T1, FPTase; test: in vitro FTase Inhibition Assay, K-Ras as substrate for farnesylation; type: biochemical; settings: K-Ras used as substrate for farnesylation
Protocol: as §1, §2, §3, §4, §5, §6

IC50 [1] [nM] | IC50 [2] [nM] | Compound
5000 |  | CC1(c2ccccc2)OC(CC(SCC(O)CO)c2ccsc2)=CC1=O (stereo not shown) [Example 16, 5-[2-[(2,3-Dihydroxypropyl)thio]-2-(3-thienyl)ethyl]-2-methyl-2-phenylfuran-3(2H)-one]
5500 | > 10000 | CC1(c2ccccc2)OC(CC(SCCCCO)c2ccsc2)=CC1=O (stereo not shown) [Example 10, 5-[2-[(4-Hydroxybutyl)thio]-2-(3-thienyl)ethyl]-2-methyl-2-phenylfuran-3(2H)-one]
> 10000 | > 10000 | CC1(c2ccccc2)OC(CC(SCCc2cnccn2)c2ccsc2)=CC1=O (stereo not shown) [Example 17, 2-Methyl-2-phenyl-5-[2-[(2-pyrazin-2-ylethyl)thio]-2-(3-thienyl)ethyl]furan-3(2H)-one]
320 | 90 | CC1(c2ccccc2)OC(CC(SC[C@@H](O)[C@H](O)CS)c2ccccc2[N+](=O)[O-])=CC1=O (relative stereo) [Example 7, 5-[2-{[(2S*,3S*)-2,3-Dihydroxy-4-mercaptobutyl]thio}-2-(2-nitrophenyl)ethyl]-2-methyl-2-phenylfuran-3(2H)-one]
> 10000 |  | CC1(c2ccc(F)cc2)OC(CC(SCCO)c2ccsc2)=CC1=O (stereo not shown) [Example 19, 2-(4-Fluorophenyl)-5-[2-[(2-hydroxyethyl)thio]-2-(3-thienyl)ethyl]-2-methylfuran-3(2H)-one]
500 | 700 | CC(C1=CC(=O)C(C)(c2ccccc2)O1)C(SCC(O)C(O)CS)c1ccsc1 (stereo not shown) [Example 8, 5-(2-{[(2S*3S*)-2,3-Dihydroxy-4-mercaptobutyl]thio}-1-methyl-2-thien-3-ylethyl)-2-methyl-2-phenylfuran-3(2H)-one]
180 |  | CC1(c2ccccc2)OC(CC(SC[C@H](O)[C@@H](O)CS)c2ccsc2)=CC1=O (stereo partly drawn) [Example 3, 5-[2-{[(2R,3R)-2,3-Dihydroxy-4-mercaptobutyl]thio}-2-(3-thienyl)ethyl]-2-methyl-2-phenylfuran-3(2H)-one]
> 10000 |  | CC1(c2ccccc2)OC(CC(SC[C@H](N)C(=O)O)c2ccsc2)=CC1=O (stereo partly drawn) [Example 20, (2R)-2-Amino-3-{[2-(5-methyl-4-oxo-5-phenyl-4,5-dihydrofuran-2-yl)-1-thien-3-ylethyl]thio}propanoic acid]

The next lines start with the compound.

Compound | IC50 [1] [nM] | IC50 [2] [nM]
CC1(c2ccccc2)OC(CC(SCCCO)c2ccsc2)=CC1=O (stereo not shown) [Example 15, 5-[2-[(3-Hydroxypropyl)thio]-2-(3-thienyl)ethyl]-2-methyl-2-phenylfuran-3(2H)-one] | 8300 | 
CC1(c2ccccc2)OC(CC(SC[C@H](O)[C@H](O)CS)c2ccsc2)=CC1=O (relative stereo) [Example 2, 5-(2-[[(2R*,3S*)-2,3-Dihydroxy-4-mercaptobutyl]thio]-2-thien-3-ylethyl)-2methyl-2-phenylfuran-3(2H)-one] | 190 | 
CC1(c2ccccc2)OC(CC(SCCCCS)c2ccsc2)=CC1=O (stereo not shown) [Example 9, 5-[2-[(4-Mercaptobutyl)thio]-2-(3-thienyl)ethyl]-2-methyl-2-phenylfuran-3(2H)-one] | 1500 | 3700
CC1(c2ccccc2)OC(CC(SCC(S)CO)c2ccsc2)=CC1=O (stereo not shown) [Example 14, 5-[2-[(3-Hydroxy-2-mercaptopropyl)thio]-2-(3-thienyl)ethyl]-2-methyl-2-phenylfuran-3(2H)-one] | 7200 | 4500
CC1(c2ccccc2)OC(CC(SCCCCCS)c2ccsc2)=CC1=O (stereo not shown) [Example 12, 5-[2-[(5-Mercaptopentyl)thio]-2-(3-thienyl)ethyl]-2-methyl-2-phenylfuran-3(2H)-one] | 8000 | 
CC1(c2ccccc2)OC(CC(SCCO)c2ccsc2)=CC1=O (stereo not shown) [Example 18] | 550 | 
CC1(c2ccccc2)OC(CC(SCCCS)c2ccsc2)=CC1=O (stereo not shown) [Example 11, 5-[2-[(3-Mercaptopropyl)thio]-2-(3-thienyl)ethyl]-2-methyl-2-phenylfuran-3(2H)-one] | 60 | 150
CC1(c2ccccc2)OC(CC(SCCS)c2ccsc2)=CC1=O (stereo not shown) [Example 13, 5-[2-[(2-Mercaptoethyl)thio]-2-(3-thienyl)ethyl]-2-methyl-2-phenylfuran-3(2H)-one] | 180 | 1000
CC1(c2ccccc2)OC(CC(SC[C@@H](O)[C@H](O)CS)c2ccsc2)=CC1=O (relative stereo) [Example 1, 5-(2-{[(2S*,3S*)-2,3-Dihydroxy-4-mercaptobutyl]thio}-2-thien-3-ylethyl)-2-methyl-2-phenylfuran-3(2H)-one] | 60 | 100
CC1(c2ccc(F)cc2)OC(CC(SC[C@H](O)[C@@H](O)CS)c2ccsc2)=CC1=O (stereo partly drawn) [Example 6, 5-(2-{[(2R,3R)-2,3-Dihydroxy-4-mercaptobutyl]thio}-2-thien-3-ylethyl)-2-(4-fluorophenyl)-2-methylfuran-3(2H)-one] | 120 | 140
